Assay results from the NIST ThermoML archive (doi:10.1021/je800921n).

Columns and labels:
[1] = Molar enthalpy of transition or fusion; settings: Crystal; Differential scanning calorimeter
[2] = Crystal; Differential scanning calorimeter

O=C(O)CCCCCCCC(=O)O [1,9-nonanedioic acid]
Molar enthalpy of transition or fusion [1]: 8.44 kcal/mol
Normal melting temperature [2]: 102.5 °C
